Where a name gives a salt, the structure may show the parent alone.
System: E.G7-OVA cells
Experiment: Endocytic pathways: cellular uptake of PL1-Alexa-Fluor 647-labeled RNA nanoparticles with endocytic inhibitors, flow cytometry
Assay type: cell-based
Details: inhibitor 0.5 h before nanoparticles, flow cytometry after 3 h, FIG. 13
Protocol: E.G7-OVA cells were treated with 5-(N-Methyl-N-isopropyl)amiloride (EIPA), chlorpromazine hydrochloride (CPZ), or methyl-β-cyclodextrin (MβCD). After 0.5 h, cells were treated with PL1-Alexa-Fluor 647-labeled RNA nanoparticles. After 3 h, cells were analyzed by flow cytometry. All data are from n=3 biologically independent samples and are presented as mean±S.E.M. Statistical significance was analyzed by the two-tailed Student's t-test. *P<0.05.
Biomimetic compounds, phospholipids and glycolipids, are composed of a biomimetic head (phosphate head or glyco head), an ionizable amino core, and multiple hydrophobic tails (FIG. 11). These phospholipid and glycolipid derivatives (PLs and GLs) were synthesized according to previously reported procedures. See, for example, WO/2019/027999. […] Following this synthetic route, PL1-18 and GL1-16 materials were synthesized (FIG. 4C), which were characterized by […] nuclear magnetic resonance (NMR) and mass spectroscopy (MS) (FIG. 4C). Next, PLs and GLs nanoparticles were formulated with firefly luciferase mRNA (FLuc mRNA), and were characterized according to size, surface charge, and mRNA encapsulation efficiency (FIGS. 12A-12C). […]

Row | Molecule | inhibition of cellular uptake of PL1 nanoparticles [%]
1 | CN(C)CCCN1c2ccccc2Sc2ccc(Cl)cc21 [CPZ, chlorpromazine hydrochloride] | 56
2 | methyl-β-cyclodextrin [MβCD] | 39

From US20220152085A1, “COMBINATION IMMUNOREGULATION AND USES THEREOF” (Ohio State Innovation Foundation, priority 2019, published 2022)
